# Source: US10752901B2, “Inhibition of ferrochelatase as an antiangiogenic therapy” (Indiana University Research and Technology Corporation, priority 2015, dated 2020)
# What was measured:
# [1] = test system: HRECs; experiment: Scratch-wound migration assay; format: cell-based, human
# Protocol: The migration of HRECs was monitored as described in Basavarajappa et al., PLoS One 9, e95694 (2014). Briefly, HRECs were grown until confluency in 6-well plates and then serum starved overnight in EBM-2 medium. Then, using a sterile 10 μL tip, a scratch was introduced in each well and fresh EGM-2 medium containing DMSO or different concentrations of compounds was added to the wells. For knockdown experiments, the scratch was introduced 48 hours after transfection and fresh medium was added to the wells. Photographs of the wells were taken at different time points to measure the number of migrated cells into the scratched area.
# [2] = test system: HRECs; experiment: Cell proliferation assay (alamarBlue), HRECs; format: cell-based, human
# Protocol: Proliferation of cells was monitored as described in Basavarajappa et al., PLoS One 9 (2014). Briefly, after FECH knockdown 2,500 cells in 100 μL of growth medium were plated in each well of 96-well clear-bottom black plates and incubated for 24 hours. Then, compound/DMSO vehicle (final DMSO concentration of 1%) were added and the plates were incubated for 44 hours in 100 μL media at 37° C. and 5% CO2. Then, 11.1 μL of alamarBlue reagent was added to each well of the plate and 4 hours later fluorescence readings were taken at excitation and emission wavelengths of 560 nm and 590 nm respectively using a Synergy H1 plate reader (BioTek, Winooski, Vt., USA). The concentration ranges of griseofulvin and NMPP used were 0.5 nM-500 μM and 0.1 nM-100 μM respectively.
# [3] = test system: mouse choroid-sclera; experiment: Choroidal sprouting assay; format: cell-based; details: ex vivo, 48 hours with compound
# Protocol: To assess choroidal sprouting, pieces of choroid-sclera dissected from euthanized mouse eyes were embedded in Matrigel and grown in EGM-2 medium plus antibiotics for 72 hours to allow sprouting to initiate. The indicated concentrations of griseofulvin (in DMSO, final DMSO concentration 1%) were added and growth allowed to proceed for 48 hours. Images were taken and growth quantified by measuring distance from the edge of the choroidal piece to the growth front in 4 directions per sample.
# [4] = test system: HRECs; experiment: In vitro Matrigel tube formation assay; format: cell-based, human
# Protocol: The ability of HRECs to form tubes in vitro was monitored as described in Basavarajappa et al., J Med Chem 58, pp. 5015-5027 (2015). Briefly, HRECs were treated with the indicated concentrations of compounds or DMSO or siRNAs for 48 hours and then 15,000 HRECs in 100 μL of EGM-2 medium containing siRNAs, DMSO or compounds were added to each well of a 96-well plate that was pre-coated with 50 μL of Matrigel basement membrane. Photographs of each well at different time points were taken to measure the tube formation using the Angiogenesis Analyzer plugin in ImageJ software (v.1.48).
# [5] = test system: choroidal neovascularization; experiment: L-CNV model (laser-induced choroidal neovascularization); format: in vivo, mouse; details: L-CNV mice
# [6] = Oral griseofulvin systemic effects (mouse and liver weights); format: in vivo; details: oral feeding
# Protocol: Mice were fed griseofulvin for a total of 3 weeks, with chow changed every 2-3 days. Standard mouse chow (5 g/mouse/day) was mixed in water (2.2 mL H2O/gram chow), soaked for 15 minutes, then mashed. Griseofulvin doses were prepared at 0.0% (control), 0.5%, and 1.0% with 0.0 g, 0.5 g, and 1.0 g griseofulvin: 10 mL corn oil: 100 g mouse chow ratio, respectively. […] The corn oil solutions and mouse chow mixture were manually mixed thoroughly for 10 minutes. During treatment, the mice were examined and weighed 3 times/week (FIG. 1A). On Day 8, mice underwent L-CNV as above, and were imaged by OCT at Day 15 and Day 22, at which time they were euthanized. The eyes were enucleated and flatmounts prepared as above. The livers were dissected out and weighed (FIG. 1B).
# [7] = antifungal treatment of humans; cited from earlier work
# [8] = biological target: T1, FECH (Homo sapiens, UniProt P22830); experiment: PPIX build-up assay; format: cell-based; details: HRECs, 5-ALA induced
# T1 construct: host or cells: HRECs (human retinal endothelial cells)
# T1 sequence (P22830 55-423): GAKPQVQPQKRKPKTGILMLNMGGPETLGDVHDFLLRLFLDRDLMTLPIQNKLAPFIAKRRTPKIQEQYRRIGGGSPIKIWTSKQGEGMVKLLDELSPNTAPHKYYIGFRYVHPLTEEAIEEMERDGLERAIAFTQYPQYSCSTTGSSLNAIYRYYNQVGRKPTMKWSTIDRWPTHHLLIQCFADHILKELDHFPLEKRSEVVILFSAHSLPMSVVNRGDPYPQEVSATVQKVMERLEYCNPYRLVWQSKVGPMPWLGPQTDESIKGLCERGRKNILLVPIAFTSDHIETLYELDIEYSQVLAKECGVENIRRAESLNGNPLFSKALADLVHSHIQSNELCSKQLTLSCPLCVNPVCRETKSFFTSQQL
# Protocol: HRECs were grown in a 6-well plate until confluent. Then, cells were serum starved overnight in EBM-2 medium. Fresh EGM-2 medium containing DMSO or compounds was added to cells, and they were incubated at 37° C. for 1 hour followed by addition of 1 mM 5-ALA to increase flux through the heme biosynthetic pathway. After 3 hours of incubation in the dark at 37° C., the cells were trypsinized and lysed in buffer containing 25 mM HEPES-NaOH pH 7.4, 150 mM NaCl, 1% NP-40, 10% glycerol and 1 mM PMSF. The cell lysates were incubated in the dark at 4° C. for 20 minutes on a shaker and centrifuged at 12000×g for 15 minutes. Supernatants were collected for analysis. In a 384-well black plate, 20 μL of supernatant was mixed with 20 μL of 1:1 solution of 2 M perchloric acid and methanol. After 5 minutes of incubation, fluorescence readings were taken at excitation and emission wavelengths of 407 nm and 610 nm using the Synergy plate reader.
# [9] = test system: endothelial cells; experiment: Anti-proliferative activity of cremastranone; format: cell-based, human; details: endothelial versus non-endothelial cells
# [10] = biological target: T2, ferrochelatase (Sus scrofa, UniProt F1S1X4); experiment: Photoaffinity pull down from porcine brain lysate; format: binding; details: competition with excess (1 mM) cremastranone isomer; immunoblot band intensity
# T2 construct: from tissue; host or cells: porcine brain lysate (S2 and S3 supernatants)
# T2 sequence (F1S1X4 1-433): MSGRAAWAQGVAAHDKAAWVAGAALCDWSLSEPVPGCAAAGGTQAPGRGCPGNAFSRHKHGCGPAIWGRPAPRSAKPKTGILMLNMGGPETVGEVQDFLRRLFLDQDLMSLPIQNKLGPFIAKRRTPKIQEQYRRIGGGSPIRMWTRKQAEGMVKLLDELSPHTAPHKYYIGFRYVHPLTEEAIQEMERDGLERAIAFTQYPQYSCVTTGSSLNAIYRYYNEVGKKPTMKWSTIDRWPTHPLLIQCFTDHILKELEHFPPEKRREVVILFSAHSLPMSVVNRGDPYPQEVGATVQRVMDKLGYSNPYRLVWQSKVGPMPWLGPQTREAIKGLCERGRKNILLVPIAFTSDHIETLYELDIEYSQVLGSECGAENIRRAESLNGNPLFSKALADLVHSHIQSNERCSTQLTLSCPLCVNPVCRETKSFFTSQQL
# Protocol: Synthesis and characterization of affinity reagents 2 and 3 are shown in WO2014182695A1, filed May 6, 2014, and incorporated by reference to the extent it is consistent herewith. Compounds 1 and 4 were synthesized as described in Lee et al., Org Biomol Chem 28, p. 28 (2014); Basavarajappa et al., PLoS One 9, e95694 (2014). For pulldowns, Neutravidin agarose beads (1 mL of 50% slurry) were washed three times in buffer A containing 25 mM Tris-HCl pH 7.4, 150 mM NaCl, 2.5 mM sodium pyrophosphate, 1 mM phenylmethylsulfonyl fluoride (PMSF), 0.1 mM sodium orthovanadate, 10 μg/mL aprotinin and 10 μg/mL leupeptin. The beads were then incubated with 100 μM affinity or control reagents 2 or 3 overnight at 4° C. with rotation. […]
# The beads were collected by centrifugation at 500×g for 5 minutes, then resuspended in 1 mL of buffer B and irradiated with 365 nm UV light (Mercury bulb H44GS100 from Sylvania in a Black-Ray 100 A long-wave UV lamp) in a 60 mm Petri dish for 30 minutes at 4° C. […] The eluates were then analyzed in 4-20% gradient SDS-PAGE and the protein bands were visualized using silver staining. The protein bands pulled down specifically by photo-affinity reagent were excised from the silver stained SDS-PAGE gel and analyzed by mass spectrometry (IUSM Proteomics Core). […]
compound,measurement,setting,value
COC1=CC(=O)C[C@@H](C)[C@]12Oc1c(Cl)c(OC)cc(OC)c1C2=O [griseofulvin],migration of HRECs,[1],inhibition of migration
same,proliferation of HRECs,[2],dose-dependent antiproliferative effects
same,concentration of griseofulvin needed to have effects,"[2]; HRECs in vitro (proliferation, migration, tube formation)",~10 µM
same,formation of microvascular sprouts,[3],inhibited formation of microvascular sprouts
same,tube formation ability of HRECs,[4],inhibition of tube formation
same,neovascularization,[5]; feeding 0.5% and 1% in chow,decreased neovascularization
same,neovascularization,"[5]; single intravitreal injection 50 μM, 100 μM",dose-dependent results
same,liver weights,[6],increased
same,mouse weights,[6]; experimental timecourse,did not significantly change
same,concentration attained in plasma,[7],1000 to 2000 ng/mL
COc1ccc(CC2COc3cc(O)c(OC)c(O)c3C2=O)cc1O (centres unmarked) [cremastranone],buildup of PPIX,[8],dose-dependent buildup of PPIX
same,rescue of antiproliferative effects by excess 5-ALA,"[2]; HRECs, addition of 5-aminolevulinic acid",partially rescued
same,antiproliferative effects,[9],selective antiproliferative effects on endothelial cells
N-methyl protoporphyrin [NMPP],migration of HRECs,[1],inhibited
same,proliferation of HRECs,[2],inhibited
same,tube formation ability of HRECs,[4],inhibited
"COc1ccc(CC2COc3cc(OC)c(O)c(O)c3C2=O)cc1O (single isomer, unassigned) [cremastranone isomer]",decrease of binding of ferrochelatase to affinity reagent,[10],87%
